According to US5756458A, “Stabilized potent GRF analogs” (Pharmacia & Upjohn Company, priority 1995, dated 1998):
Like-named read-outs stand apart in the source and are kept apart here. One block for each substance: values may come before it. Where no end group is shown, it is not given here.

Legend:
[1] = In vitro stability in bovine plasma; type: in vitro ADME
Procedure: | ^.noteq. Peptides at 0.03 mM were incubated with bovine plasma at | 37° C. for one hr. Aliquots of 0.1 ml were quenched with 2 ml of | 0.2% aqueous trifluoroacetic acid solution and subjected to solid phase | extraction and HPLC analysis as described in T.M. Kubiak et al. Drug Met. | Disp. 17, 393-397 (1989).

plasma DPP-IV = target: T1, plasma DPP-IV (Bos taurus, UniProt P81425); assay: Cleavage after residue 2 by plasma DPP-IV on incubation in bovine plasma in vitro; type: in vitro ADME; design: Cleavage after residue 2 (footnote mark ++): key to the marks not given beside the values
T1 construct: from tissue; host or cells: bovine plasma (two different plasma pools)
Procedure: Evidence of the improved metabolic stability of the compounds of this invention (when compared to native GRF) is illustrated in Table I by the in vitro stability data provided. It is noteworthy that in bovine plasma in vitro, the analogs having Thr^2, Val^2, Ile^2 or Leu^2 were not cleaved after residue 2 by plasma DPP-IV under the experimental conditions used in the study (one hour plasma incubation).
++ No cleavage after residue 2 was observed upon incubation in bovine
plasma in vitro over a 1 hr incubation period.

[2] = system: rat pituitary cell cultures; assay: Growth hormone (GH) release in rat pituitary cell cultures in vitro (FIG. 1); type: cell-based; settings: Leu^27 -bGRF(1-29)NH2 assay standard
Procedure: Effect of analogs of Thr^2, Ala^15, Leu^27 -bGRF(1-29)NH2 on growth hormone (GH) release in rat pituitary cell cultures in vitro. The assay was performed according to procedure of Frohman and Downs, Methods Enzymol. 124, 371-389 (1986). […] Leu^27 -bGRF(1-29)NH2 was used as the assay standard.

Steers [3] = type: in vivo, steer; settings: STUDY II, subcutaneous 0.75 nmol/kg, area under serum GH curve, 6 hrs after treatment, bGRF(1-44)NH2 = 100
Procedure: | ^.sctn. Steers were injected subcutaneously with peptides at the dose | of 0.75 nmol/kg. Relative potency was calculated on the basis of the area | under serum GH curve monitored for 6 hrs after treatment.

Steers [4] = type: in vivo, steer
Procedure: | ^# Steers were injected iv with peptides at the dose of 0.01 nmol/kg | and the procedures were as described in W.M. Moseley et al. J. Endocr. | 117, 253-259 (1988). Relative potency was calculated on the basis of the | area under serum growth hormone (GH) curve monitored for 2 hrs after | treatment.

meal-fed Holstein steers = assay: Mean serum GH in meal-fed Holstein steers after intravenous injection (FIG. 2); type: in vivo; settings: dose of 0.01 nmol/kg (10 pmol/kg)
Procedure: The enhanced in vivo potency of the compounds of this invention where R19 is Val or Ile is illustrated in FIGS. 1 and 2.
Mean concentration of serum growth hormone (GH) in meal-fed Holstein steers after intravenous injection (10 pmol/kg) of GRF analogs. The assay was performed as described by Moseley et al., J. Endocrinol. 117, 252-259 (1988). Bovine GRF(1-44)NH2 was used as the assay standard.

[5] = system: primary cultures of rat anterior pituitary cells; settings: GH secretion; cited from earlier work
[6] = bovine plasma, STUDY I, plasma pool 1, peptide 0.03 mM, bovine plasma, 37° C., one hr, read-out: In vitro stability (% Inact peptide after 1 hr)
[7] = bovine plasma, STUDY II, plasma pool 2, peptide 0.03 mM, bovine plasma, 37° C., one hr, read-out: In vitro stability (% Inact peptide after 1 hr)

T1 sequence (P81425 38-765 limits assumed): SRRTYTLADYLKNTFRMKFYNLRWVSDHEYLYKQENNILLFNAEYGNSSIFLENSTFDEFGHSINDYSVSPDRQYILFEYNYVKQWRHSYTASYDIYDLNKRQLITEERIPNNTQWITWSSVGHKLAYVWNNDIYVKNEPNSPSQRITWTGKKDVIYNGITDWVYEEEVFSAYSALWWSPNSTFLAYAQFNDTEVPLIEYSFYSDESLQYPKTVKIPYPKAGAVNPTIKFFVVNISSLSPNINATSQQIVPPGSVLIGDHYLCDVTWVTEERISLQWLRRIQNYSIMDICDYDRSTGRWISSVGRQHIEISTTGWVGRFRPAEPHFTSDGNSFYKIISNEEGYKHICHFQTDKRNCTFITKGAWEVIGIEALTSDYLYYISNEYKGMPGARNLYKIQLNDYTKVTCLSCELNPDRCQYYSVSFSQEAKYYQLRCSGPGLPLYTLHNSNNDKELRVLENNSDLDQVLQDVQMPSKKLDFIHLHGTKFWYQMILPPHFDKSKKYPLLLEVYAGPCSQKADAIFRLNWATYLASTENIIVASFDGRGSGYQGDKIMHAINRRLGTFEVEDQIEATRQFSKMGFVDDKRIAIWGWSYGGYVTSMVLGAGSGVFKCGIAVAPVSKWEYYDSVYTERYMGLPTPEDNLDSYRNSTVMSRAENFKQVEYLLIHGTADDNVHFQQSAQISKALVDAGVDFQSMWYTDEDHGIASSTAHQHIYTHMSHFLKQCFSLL

remaining at 1 h, 0.03 mM [1, 6]: 56.2%
Substance: YADAIFTNSYRKVLAQLSARKLLQDILNR-NH2 [Ala^15,Leu^27-bGRF(1-29)NH2, reference compound]

remaining at 1 h, 0.03 mM ([1]; plasma, In vitro stability (% Inact peptide after 1 hr)): 91.1% | Cleavage after residue 2 (footnote mark ++) (plasma DPP-IV): ++ | DPP-IV related cleavage (plasma DPP-IV): slight DPP-IV related cleavage
Substance: H-YTDAIFTNSYRKVLAQLSARKLLQDILNR-NH2 [Thr^2,Ala^15,Leu^27-bGRF(1-29)NH2]

Substance: YTDAIFTNSYRKVLAQLSLRKLLQDILNR-NH2 [Leu^19]
GH-releasing bioactivity in vitro as compared with Thr^2, Ala^15, Leu^27 -bGRF(1-29)NH2 [2]: deleterious

remaining at 1 h, 0.03 mM [1, 6]: 39.8% | remaining at 1 h, 0.03 mM [1, 7]: 46.8%
Substance: YADAIFTNSYRKVLGQLSARKLLQDILNR-NH2 [Leu^27-bGRF(1-29)NH2, reference compound]

remaining at 1 h, 0.03 mM [1, 7]: 83.4%
Substance: H-YVDAIFTNSYRKVLAQLSARKLLQDILNR-NH2 [Val^2,Ala^15,Leu^27-bGRF(1-29)NH2]

remaining at 1 h, 0.03 mM [1, 7]: 80.3%
Substance: H-YIDAIFTNSYRKVLAQLSARKLLQDILNR-NH2 [Ile^2,Ala^15,Leu^27-bGRF(1-29)NH2]
In vivo relative potency sc (Steers [3]): 16c | Expected potency relative to isomer Leu^2 Ala^15 Leu^27 bGRF(1-29)NH2 when the ED50 of each is determined and compared (Steers [4]; extrapolated from relative in vivo potency at 0.01 nmol/kg, ED50 not determined): 10-20 times

remaining at 1 h, 0.03 mM [1, 7]: 86.3%
Substance: YLDAIFTNSYRKVLAQLSARKLLQDILNR-NH2 [Leu^2,Ala^15,Leu^27-bGRF(1-29)NH2, reference compound]

remaining at 1 h, 0.03 mM [1, 6]: 75.6%
Substance: YTDAIFTNSYRKVLGQLSARKLLQDILNR-NH2 [Thr^2,Leu^27-bGRF(1-29)NH2]

Substance: bGRF(1-14)NH2 [reference compound]
In vivo relative potency iv (Steers [4]; STUDY I, steers, iv 0.01 nmol/kg, area under serum GH curve, 2 hrs after treatment, native bGRF standard = 100): 100

Substance: H-YTDAIFTNSYRKVLAQLSVRKLLQDILNR-NH2
GH-releasing bioactivity in vitro as compared with Thr^2, Ala^15, Leu^27 -bGRF(1-29)NH2 [2]: increased | In vivo bioactivity compared with native GRF (meal-fed Holstein steers): more bioactive than the native GRF

Substance: H-Tyr-Ala-Asp-Ala-Ile-Phe-Ser-Ser-Ala-Tyr-Arg-Arg-Leu-Leu-Ala-Gln-Leu-Ala- Ser-Arg-Arg-Leu-Leu-Gln-Glu-Leu-Leu-Ala-Arg-NH2 /OH [free acid form] (H-YADAIFSSAYRRLLAQLASRRLLQELLAR-OH) [29-amino acid analog of hGRF designed by G. Velicelebi, et al., free acid form]
Potency relative to hGRF(1-40)OH (times as potent) [5]: 1/6

Substance: H-Tyr-Ala-Asp-Ala-Ile-Phe-Ser-Ser-Ala-Tyr-Arg-Arg-Leu-Leu-Ala-Gln-Leu-Ala- Ser-Arg-Arg-Leu-Leu-Gln-Glu-Leu-Leu-Ala-Arg-NH2 /OH [amide analog] (H-YADAIFSSAYRRLLAQLASRRLLQELLAR-NH2) [29-amino acid analog of hGRF designed by G. Velicelebi, et al., amide form]
Potency relative to hGRF(1-40)OH (times as potent) [5]: 1.57

Substance: YTDAIFTNSYRKVLAQLSIRKLLQDILNR-NH2
GH-releasing bioactivity in vitro as compared with Thr^2, Ala^15, Leu^27 -bGRF(1-29)NH2 [2]: unchanged | In vivo bioactivity compared with native GRF (meal-fed Holstein steers): more bioactive than the native GRF
